Experimental data reported in PMC4476799, “Englerin A Agonizes the TRPC4/C5 Cation Channels to Inhibit Tumor Cell Line Proliferation” (PLoS ONE, 2015).
Where two headings read alike, the source gives them in different places.

Test system: cancer cell lines from the cancer cell line encyclopedia (CCLE)
Experiment: Cell line profiling (CLiP) proliferation experiment
Format: cell-based
Parameters: ACTIVITY_AREA: scale not given here; AMAX: unit not given here
Settings: for IC50: read-out: Crossing Point; for EC50: read-out: Inflection Point
Description: Compound profiling experiment and data analysis was performed as previously described. Data was imported and plotted using the Tibco Spotfire DXP application. Lines were categorized as sensitive, intermediate and refractory as follows: Amax<-40 & Inflection Point <2 ~ Sensitive, Amax>-20 & Inflection Point >10 ~ Refractory, all else were called Intermediate. Cancer Cell line HG-U133 Plus 2 data was processed and normalized as described. […] Five sets of refractory cell lines were generated from the pool of refractory cell lines trying to match the lineage composition of the set of sensitive cell lines. The limma package was used as previously described to perform the statistical comparison.

[1] = CAS-1, central_nervous_system, astrocytoma_Grade_IV
[2] = CCK-81, large_intestine, adenocarcinoma
[3] = CCRF-CEM, haematopoietic_and_lymphoid_tissue, acute_lymphoblastic_T_cell_leukaemia
[4] = CFPAC-1, pancreas, ductal_carcinoma
[5] = CI-1, haematopoietic_and_lymphoid_tissue, B_cell_lymphoma_unspecified
[6] = CMK, haematopoietic_and_lymphoid_tissue, acute_myeloid_leukaemia
[7] = CMK-11-5, haematopoietic_and_lymphoid_tissue, acute_myeloid_leukaemia
[8] = CML-T1, haematopoietic_and_lymphoid_tissue, blast_phase_chronic_myeloid_leukaemia
[9] = COLO 205, large_intestine, adenocarcinoma
[10] = COLO 668, lung, small_cell_carcinoma
[11] = COLO 775, haematopoietic_and_lymphoid_tissue, chronic_myeloid_leukaemia
[12] = COLO-320, large_intestine, adenocarcinoma
[13] = COLO-680N, oesophagus, squamous_cell_carcinoma
[14] = COR-L23, lung, large_cell_carcinoma
[15] = COR-L47, lung, small_cell_carcinoma
[16] = COR-L88, lung, small_cell_carcinoma
[17] = COR-L279, lung, small_cell_carcinoma
[18] = Calu-6, lung, undifferentiated_carcinoma
[19] = Capan-1, pancreas, ductal_carcinoma
[20] = DBTRG-05MG, central_nervous_system, astrocytoma_Grade_IV
[21] = DK-MG, central_nervous_system, astrocytoma_Grade_IV
[22] = DLD-1, large_intestine, adenocarcinoma
[23] = DMS 114, lung, small_cell_carcinoma
[24] = DMS 273, lung, small_cell_carcinoma
[25] = Daoy, central_nervous_system, NS
[26] = Detroit 562, upper_aerodigestive_tract, NS
[27] = EFM-192A, cell line EFM-192A, breast
[28] = HCC1500, cell line HCC1500, breast

SMILES: CC(C)[C@@]12C[C@@H](O)[C@@](C)(O1)[C@@H]1CC[C@@H](C)[C@H]1[C@@H]2OC(=O)/C=C/c1ccccc1 [Englerin B]
- effect on proliferation of cancer cell lines (524 cancer cell lines from the CCLE): no cancer cell lines have their growth potently inhibited
- IC50 (A4/Fuk cells): 18.1 µM
- EC50 (A4/Fuk cells): 18.1 µM
- IC50 (ACC-MESO-1, ACC-MESO-1 cells): > 30 µM
- IC50 (ACC-MESO-1, cell line ACC-MESO-1, pleura, NS): > 30 µM
- IC50 (BDCM cells): 16.9 µM
- EC50 (BDCM cells): 16.9 µM
- EC50 (BHY cells): 9.33 µM
- IC50 (BICR 6 cells): 23 µM
- EC50 (BICR 6 cells): 23 µM
- EC50 (BICR 22 cells): 15 µM
- IC50 (CAL-78, bone, dedifferentiated): > 30 µM
- IC50 (CAL-78 cells): > 30 µM
- ACTIVITY_AREA (CAMA-1, breast, NS): 21.9
- AMAX (CAMA-1, breast, NS): -43.81
- RESPONSE (CAMA-1, breast, NS): INTERMEDIATE
- ACTIVITY_AREA [1]: 8.27
- AMAX [1]: -27.8
- RESPONSE [1]: INTERMEDIATE
- IC50 [1]: > 30 µM
- IC50 (CAS-1 cells): > 30 µM
- ACTIVITY_AREA [2]: 19.43
- AMAX [2]: -61.47
- RESPONSE [2]: INTERMEDIATE
- IC50 [2]: 24.9 µM
- EC50 [2]: 24.9 µM
- IC50 (CCK-81 cells): 24.9 µM
- EC50 (CCK-81 cells): 24.9 µM
- ACTIVITY_AREA [3]: 12.38
- AMAX [3]: -48.26
- RESPONSE [3]: INTERMEDIATE
- ACTIVITY_AREA [4]: 25.86
- AMAX [4]: -50.08
- RESPONSE [4]: INTERMEDIATE
- ACTIVITY_AREA (CHL-1, skin, NS): 19.98
- AMAX (CHL-1, skin, NS): -60.11
- RESPONSE (CHL-1, skin, NS): INTERMEDIATE
- ACTIVITY_AREA (CHP-212, autonomic_ganglia, NS): 33.44
- AMAX (CHP-212, autonomic_ganglia, NS): -55.99
- RESPONSE (CHP-212, autonomic_ganglia, NS): INTERMEDIATE
- ACTIVITY_AREA [5]: 19.7
- AMAX [5]: 16.67
- RESPONSE [5]: REFRACTORY
- IC50 [5]: > 30 µM
- ACTIVITY_AREA [6]: 61.63
- AMAX [6]: -8.06
- RESPONSE [6]: REFRACTORY
- IC50 [6]: > 30 µM
- IC50 (CMK-11-5, CMK-11-5, haematopoietic_and_lymphoid_tissue, acute_myeloid_leukaemia): 24.1 µM
- ACTIVITY_AREA [7]: 101.26
- AMAX [7]: -51.95
- RESPONSE [7]: INTERMEDIATE
- IC50 (CML-T1, CML-T1, haematopoietic_and_lymphoid_tissue, blast_phase_chronic_myeloid_leukaemia): 17.9 µM
- ACTIVITY_AREA [8]: 42.33
- AMAX [8]: -73.13
- RESPONSE [8]: INTERMEDIATE
- ACTIVITY_AREA [9]: 33.02
- AMAX [9]: -61.38
- RESPONSE [9]: INTERMEDIATE
- ACTIVITY_AREA [10]: 28.83
- AMAX [10]: -55.03
- RESPONSE [10]: INTERMEDIATE
- IC50 (COLO 699, COLO-699, lung, adenocarcinoma): 3.62 µM
- IC50 (COLO 704, COLO-704, ovary, NS): 6.82 µM
- ACTIVITY_AREA (COLO 741, skin, NS): 12.88
- AMAX (COLO 741, skin, NS): -37.55
- RESPONSE (COLO 741, skin, NS): INTERMEDIATE
- ACTIVITY_AREA [11]: 59.22
- AMAX [11]: -93.44
- RESPONSE [11]: INTERMEDIATE
- IC50 [11]: 9.44 µM
- EC50 [11]: 9.31 µM
- ACTIVITY_AREA (COLO 792, skin, NS): 11.82
- AMAX (COLO 792, skin, NS): -22.14
- RESPONSE (COLO 792, skin, NS): INTERMEDIATE
- IC50 (COLO 792, skin, NS): > 30 µM
- EC50 (COLO 792, skin, NS): 16 µM
- IC50 (COLO 792 cells): > 30 µM
- EC50 (COLO 792 cells): 16 µM
- ACTIVITY_AREA (COLO 829, skin, NS): 31.7
- AMAX (COLO 829, skin, NS): -7.17
- RESPONSE (COLO 829, skin, NS): REFRACTORY
- ACTIVITY_AREA [12]: 102.29
- AMAX [12]: -70.01
- RESPONSE [12]: INTERMEDIATE
- ACTIVITY_AREA [13]: 26.11
- AMAX [13]: -34.59
- RESPONSE [13]: INTERMEDIATE
- ACTIVITY_AREA (COLO-699, lung, adenocarcinoma): 153.56
- AMAX (COLO-699, lung, adenocarcinoma): -71.88
- RESPONSE (COLO-699, lung, adenocarcinoma): INTERMEDIATE
- ACTIVITY_AREA (COLO-704, ovary, NS): 138.81
- AMAX (COLO-704, ovary, NS): -63.22
- RESPONSE (COLO-704, ovary, NS): INTERMEDIATE
- ACTIVITY_AREA (COLO-800, skin, NS): 66.95
- AMAX (COLO-800, skin, NS): -43.63
- RESPONSE (COLO-800, skin, NS): INTERMEDIATE
- ACTIVITY_AREA [14]: 32.4
- AMAX [14]: -39.64
- RESPONSE [14]: INTERMEDIATE
- ACTIVITY_AREA [15]: 92.1
- AMAX [15]: -15.76
- RESPONSE [15]: REFRACTORY
- ACTIVITY_AREA [16]: 20.83
- AMAX [16]: -31.56
- RESPONSE [16]: INTERMEDIATE
- ACTIVITY_AREA [17]: 130.29
- AMAX [17]: -86.84
- RESPONSE [17]: INTERMEDIATE
- IC50 (COV318, COV318, ovary, NS): 25.6 µM
- EC50 (COV318, COV318, ovary, NS): 25.6 µM
- ACTIVITY_AREA (COV318, ovary, NS): 39.59
- AMAX (COV318, ovary, NS): -54.13
- RESPONSE (COV318, ovary, NS): INTERMEDIATE
- IC50 (COV504, COV504, ovary, NS): > 30 µM
- IC50 (COV504, cell line COV504 (ovary, NS)): > 30 µM
- ACTIVITY_AREA (COV504, ovary, NS): 33.53
- AMAX (COV504, ovary, NS): -45.79
- RESPONSE (COV504, ovary, NS): INTERMEDIATE
- ACTIVITY_AREA (COV644, ovary, NS): 35.24
- AMAX (COV644, ovary, NS): -28.86
- RESPONSE (COV644, ovary, NS): INTERMEDIATE
- IC50 (COV644, ovary, NS): > 30 µM
- EC50 (COV644, ovary, NS): 3.05 µM
- IC50 (COV644 cells): > 30 µM
- EC50 (COV644 cells): 3.05 µM
- ACTIVITY_AREA (Calu-3, lung, adenocarcinoma): 19.78
- AMAX (Calu-3, lung, adenocarcinoma): 4.65
- RESPONSE (Calu-3, lung, adenocarcinoma): REFRACTORY
- ACTIVITY_AREA [18]: 28.42
- AMAX [18]: -47.13
- RESPONSE [18]: INTERMEDIATE
- ACTIVITY_AREA (Caov-3, ovary, adenocarcinoma): 128.76
- AMAX (Caov-3, ovary, adenocarcinoma): -55.06
- RESPONSE (Caov-3, ovary, adenocarcinoma): INTERMEDIATE
- ACTIVITY_AREA [19]: 29.63
- AMAX [19]: -25.75
- RESPONSE [19]: INTERMEDIATE
- IC50 (Ci-1, CI-1 cells): > 30 µM
- IC50 (DAN-G cells): 29.3 µM
- EC50 (DAN-G cells): 29.3 µM
- ACTIVITY_AREA (DAN-G, pancreas, NS): 26.93
- AMAX (DAN-G, pancreas, NS): -50.77
- RESPONSE (DAN-G, pancreas, NS): INTERMEDIATE
- IC50 (DAN-G, pancreas, NS): 29.3 µM
- EC50 (DAN-G, pancreas, NS): 29.3 µM
- ACTIVITY_AREA [20]: 21.88
- AMAX [20]: -30.64
- RESPONSE [20]: INTERMEDIATE
- ACTIVITY_AREA [21]: 33.27
- AMAX [21]: -67.8
- RESPONSE [21]: INTERMEDIATE
- IC50 [21]: 16.1 µM
- EC50 [21]: 12.5 µM
- ACTIVITY_AREA [22]: 71.46
- AMAX [22]: -59.67
- RESPONSE [22]: INTERMEDIATE
- ACTIVITY_AREA [23]: 21.61
- AMAX [23]: -57.16
- RESPONSE [23]: INTERMEDIATE
- ACTIVITY_AREA [24]: 29.68
- AMAX [24]: -73.92
- RESPONSE [24]: INTERMEDIATE
- ACTIVITY_AREA [25]: 43
- AMAX [25]: -39.21
- RESPONSE [25]: INTERMEDIATE
- ACTIVITY_AREA [26]: 35.45
- AMAX [26]: -46.18
- RESPONSE [26]: INTERMEDIATE
- IC50 [27]: 22.9 µM
- EC50 [27]: 22.9 µM
- EC50 (EFM-192A, cell line EFM-192A): 22.9 µM
- IC50 (GP2d, cell line GP2d, large_intestine): > 30 µM
- IC50 (GP2d, cell line GP2d): > 30 µM
- IC50 (HCC15, cell line HCC-15, lung): 15.5 µM
- IC50 (HCC366, cell line HCC-366, lung): > 30 µM
- IC50 (HCC366, cell line HCC-366): > 30 µM
- IC50 (HCC1171, cell line HCC-1171, lung): 26.9 µM
- IC50 [28]: > 30 µM
- EC50 [28]: 8.24 µM
- IC50 (HCC1500, cell line HCC1500): > 30 µM
- IC50 (HEC-6, cell line HEC-6, endometrium): > 30 µM
- IC50 (HEC-6, cell line HEC-6): > 30 µM
- IC50 (HEC-50B, cell line HEC-50B, endometrium): > 30 µM
